The test system of one experiment is MCF7. The experiment in a line: Cytotoxicity against human MCF7 cells at 5 uM by MTT assay. The format is functional. Background: Tetrazolium assays rely on reduction of a dye to a coloured formazan, in cell work by metabolically active cells.
Compound `Cc1nc2nc(Sc3ccccc3)cnc2cc1NC(=O)Nc1ccc(F)c([N+](=O)[O-])c1` displayed an Activity of less than 50%.
Same read-out and setting: then `Cc1ccc(C(=O)Nc2cc3nccnc3nc2C)cc1`, with less than 50%; and `COc1cc(C(=O)Nc2cc3nccnc3nc2C)cc(OC)c1OC`, with less than 50%; and `Cc1nc2nc(Sc3ccccc3)cnc2cc1NC(=O)CN1CCN(C)CC1`, with less than 50%.
On to `Cc1nc2nc(Sc3ccccc3)cnc2cc1N`, for which the Activity is given as less than 50%.
Still for that read-out and setting: the same measure for `Cc1nc2nc(Sc3ccccc3)cnc2cc1NC(=O)Nc1ccc(F)c(Cl)c1`: less than 50%; for `Cc1nc2nccnc2cc1NC(=O)CN1CCN(C)CC1`: less than 50%; for `COc1cc(C(=O)Nc2cc3ncc(Sc4ccccc4)nc3nc2C)cc(OC)c1OC`: less than 50%.
Same read-out and setting: then `Cc1nc2nc(Sc3ccccc3)cnc2cc1NC(=O)c1ccc([N+](=O)[O-])cc1`, with less than 50%.
The same measure, in the same setting: the same measure for `Cc1ccc(C(=O)Nc2cc3ncc(Sc4ccccc4)nc3nc2C)cc1`: less than 50%.

Another experiment has as its system MCF7. In words: Cytotoxicity against human MCF7 cells at 10 uM by MTT assay. The experiment is classed as functional.
In turn, `Cc1nc2nc(Sc3ccccc3)cnc2cc1NC(=O)Nc1ccc(F)c([N+](=O)[O-])c1` returned an Activity of less than 50%.
`Cc1ccc(C(=O)Nc2cc3nccnc3nc2C)cc1` gave an Activity of less than 50%.
Turning to `COc1cc(C(=O)Nc2cc3nccnc3nc2C)cc(OC)c1OC`, the Activity was less than 50%.
Still for that read-out and setting: then `Cc1nc2nc(Sc3ccccc3)cnc2cc1NC(=O)CN1CCN(C)CC1`, with less than 50%; and `Cc1nc2nc(Sc3ccccc3)cnc2cc1N`, with less than 50%.
In turn, `Cc1nc2nc(Sc3ccccc3)cnc2cc1NC(=O)Nc1ccc(F)c(Cl)c1` came in with an Activity of less than 50%.
The compound `Cc1nc2nccnc2cc1NC(=O)CN1CCN(C)CC1` displayed an Activity of less than 50%.
`COc1cc(C(=O)Nc2cc3ncc(Sc4ccccc4)nc3nc2C)cc(OC)c1OC` came in with an Activity of less than 50%.
`Cc1nc2nc(Sc3ccccc3)cnc2cc1NC(=O)c1ccc([N+](=O)[O-])cc1` yielded an Activity of less than 50%.
`Cc1ccc(C(=O)Nc2cc3ncc(Sc4ccccc4)nc3nc2C)cc1` displayed an Activity of less than 50%.

The subject of the next experiment is T47D. The experiment in a line: Cytotoxicity against human T47D cells at 5 uM by MTT assay. The experiment is classed as functional.
Regarding `Cc1nc2nc(Sc3ccccc3)cnc2cc1NC(=O)Nc1ccc(F)c([N+](=O)[O-])c1`, the Activity was less than 50%.
On to `Cc1ccc(C(=O)Nc2cc3nccnc3nc2C)cc1`, for which the Activity is less than 50%.
On the same count and under the same terms, the same measure for `COc1cc(C(=O)Nc2cc3nccnc3nc2C)cc(OC)c1OC`: less than 50%.
The same measure, in the same setting: then `Cc1nc2nc(Sc3ccccc3)cnc2cc1NC(=O)CN1CCN(C)CC1`, with less than 50%.
Still for that read-out and setting: the same measure for `Cc1nc2nc(Sc3ccccc3)cnc2cc1N`: less than 50%.
As for `Cc1nc2nc(Sc3ccccc3)cnc2cc1NC(=O)Nc1ccc(F)c(Cl)c1`, the Activity is less than 50%.
`Cc1nc2nccnc2cc1NC(=O)CN1CCN(C)CC1` gave an Activity of less than 50%.
The same measure, in the same setting: the same measure for `COc1cc(C(=O)Nc2cc3ncc(Sc4ccccc4)nc3nc2C)cc(OC)c1OC`: less than 50%; for `Cc1nc2nc(Sc3ccccc3)cnc2cc1NC(=O)c1ccc([N+](=O)[O-])cc1`: less than 50%; for `Cc1ccc(C(=O)Nc2cc3ncc(Sc4ccccc4)nc3nc2C)cc1`: less than 50%.

The test system of a further experiment is T47D. In words: Cytotoxicity against human T47D cells at 10 uM by MTT assay. The experiment is classed as functional.
Take `Cc1nc2nc(Sc3ccccc3)cnc2cc1NC(=O)Nc1ccc(F)c([N+](=O)[O-])c1`: the Activity is listed as less than 50%.
Same read-out and setting: then `Cc1ccc(C(=O)Nc2cc3nccnc3nc2C)cc1`, with less than 50%; and `COc1cc(C(=O)Nc2cc3nccnc3nc2C)cc(OC)c1OC`, with less than 50%; and `Cc1nc2nc(Sc3ccccc3)cnc2cc1NC(=O)CN1CCN(C)CC1`, with less than 50%.
Same read-out and setting: the same measure for `Cc1nc2nc(Sc3ccccc3)cnc2cc1N`: less than 50%; for `Cc1nc2nc(Sc3ccccc3)cnc2cc1NC(=O)Nc1ccc(F)c(Cl)c1`: less than 50%.
Still for that read-out and setting: the same measure for `Cc1nc2nccnc2cc1NC(=O)CN1CCN(C)CC1`: less than 50%; for `COc1cc(C(=O)Nc2cc3ncc(Sc4ccccc4)nc3nc2C)cc(OC)c1OC`: less than 50%.
In turn, `Cc1nc2nc(Sc3ccccc3)cnc2cc1NC(=O)c1ccc([N+](=O)[O-])cc1` gave an Activity of less than 50%.
Same read-out and setting: then `Cc1ccc(C(=O)Nc2cc3ncc(Sc4ccccc4)nc3nc2C)cc1`, with less than 50%.

For a further experiment, the system named is MDA-MB-231. In words: Cytotoxicity against human MDA-MB-231 cells at 5 uM by MTT assay. The experiment is classed as functional.
Compound `Cc1nc2nc(Sc3ccccc3)cnc2cc1NC(=O)Nc1ccc(F)c([N+](=O)[O-])c1` registered an Activity of less than 50%.
Same read-out and setting: the same measure for `Cc1ccc(C(=O)Nc2cc3nccnc3nc2C)cc1`: less than 50%; for `COc1cc(C(=O)Nc2cc3nccnc3nc2C)cc(OC)c1OC`: less than 50%; for `Cc1nc2nc(Sc3ccccc3)cnc2cc1NC(=O)CN1CCN(C)CC1`: less than 50%.
Still for that read-out and setting: the same measure for `Cc1nc2nc(Sc3ccccc3)cnc2cc1N`: less than 50%; for `Cc1nc2nc(Sc3ccccc3)cnc2cc1NC(=O)Nc1ccc(F)c(Cl)c1`: less than 50%; for `Cc1nc2nccnc2cc1NC(=O)CN1CCN(C)CC1`: less than 50%.
The same measure, in the same setting: then `COc1cc(C(=O)Nc2cc3ncc(Sc4ccccc4)nc3nc2C)cc(OC)c1OC`, with less than 50%; and `Cc1nc2nc(Sc3ccccc3)cnc2cc1NC(=O)c1ccc([N+](=O)[O-])cc1`, with less than 50%.
As to `Cc1ccc(C(=O)Nc2cc3ncc(Sc4ccccc4)nc3nc2C)cc1`, the Activity is recorded as less than 50%.

The subject of the next experiment is MDA-MB-231. In words: Cytotoxicity against human MDA-MB-231 cells at 10 uM by MTT assay. The format is functional.
In the case of `Cc1nc2nc(Sc3ccccc3)cnc2cc1NC(=O)Nc1ccc(F)c([N+](=O)[O-])c1`, the Activity is on record as less than 50%.
On the same count and under the same terms, the same measure for `Cc1ccc(C(=O)Nc2cc3nccnc3nc2C)cc1`: less than 50%.
In turn, `COc1cc(C(=O)Nc2cc3nccnc3nc2C)cc(OC)c1OC` had an Activity of less than 50%.
Same read-out and setting: the same measure for `Cc1nc2nc(Sc3ccccc3)cnc2cc1NC(=O)CN1CCN(C)CC1`: less than 50%; for `Cc1nc2nc(Sc3ccccc3)cnc2cc1N`: less than 50%; for `Cc1nc2nc(Sc3ccccc3)cnc2cc1NC(=O)Nc1ccc(F)c(Cl)c1`: less than 50%.
On the same count and under the same terms, then `Cc1nc2nccnc2cc1NC(=O)CN1CCN(C)CC1`, with less than 50%; and `COc1cc(C(=O)Nc2cc3ncc(Sc4ccccc4)nc3nc2C)cc(OC)c1OC`, with less than 50%; and `Cc1nc2nc(Sc3ccccc3)cnc2cc1NC(=O)c1ccc([N+](=O)[O-])cc1`, with less than 50%.
Still for that read-out and setting: the same measure for `Cc1ccc(C(=O)Nc2cc3ncc(Sc4ccccc4)nc3nc2C)cc1`: less than 50%.

A further experiment relates to HCC1954. In words: Cytotoxicity against human HCC1954 cells at 5 uM by MTT assay. The experiment is classed as functional.
`Cc1nc2nc(Sc3ccccc3)cnc2cc1NC(=O)Nc1ccc(F)c([N+](=O)[O-])c1` registered an Activity of less than 50%.
Still for that read-out and setting: then `Cc1ccc(C(=O)Nc2cc3nccnc3nc2C)cc1`, with less than 50%; and `COc1cc(C(=O)Nc2cc3nccnc3nc2C)cc(OC)c1OC`, with less than 50%.
Consider `Cc1nc2nc(Sc3ccccc3)cnc2cc1NC(=O)CN1CCN(C)CC1`, for which the Activity is on record as less than 50%.
On the same count and under the same terms, the same measure for `Cc1nc2nc(Sc3ccccc3)cnc2cc1N`: less than 50%.
On the same count and under the same terms, then `Cc1nc2nc(Sc3ccccc3)cnc2cc1NC(=O)Nc1ccc(F)c(Cl)c1`, with less than 50%; and `Cc1nc2nccnc2cc1NC(=O)CN1CCN(C)CC1`, with less than 50%; and `COc1cc(C(=O)Nc2cc3ncc(Sc4ccccc4)nc3nc2C)cc(OC)c1OC`, with less than 50%.
The same measure, in the same setting: the same measure for `Cc1nc2nc(Sc3ccccc3)cnc2cc1NC(=O)c1ccc([N+](=O)[O-])cc1`: less than 50%; for `Cc1ccc(C(=O)Nc2cc3ncc(Sc4ccccc4)nc3nc2C)cc1`: less than 50%.

A further experiment relates to HCC1954. The experiment in a line: Cytotoxicity against human HCC1954 cells at 10 uM by MTT assay. The experiment is classed as functional.
`Cc1nc2nc(Sc3ccccc3)cnc2cc1NC(=O)Nc1ccc(F)c([N+](=O)[O-])c1` had an Activity of less than 50%.
On the same count and under the same terms, then `Cc1ccc(C(=O)Nc2cc3nccnc3nc2C)cc1`, with less than 50%; and `COc1cc(C(=O)Nc2cc3nccnc3nc2C)cc(OC)c1OC`, with less than 50%.
In turn, `Cc1nc2nc(Sc3ccccc3)cnc2cc1NC(=O)CN1CCN(C)CC1` showed an Activity of less than 50%.
`Cc1nc2nc(Sc3ccccc3)cnc2cc1N`: the Activity is less than 50%.
Compound `Cc1nc2nc(Sc3ccccc3)cnc2cc1NC(=O)Nc1ccc(F)c(Cl)c1` showed an Activity of less than 50%.
In the case of `Cc1nc2nccnc2cc1NC(=O)CN1CCN(C)CC1`, the Activity is given as less than 50%.
Still for that read-out and setting: then `COc1cc(C(=O)Nc2cc3ncc(Sc4ccccc4)nc3nc2C)cc(OC)c1OC`, with less than 50%.
On the same count and under the same terms, then `Cc1nc2nc(Sc3ccccc3)cnc2cc1NC(=O)c1ccc([N+](=O)[O-])cc1`, with less than 50%; and `Cc1ccc(C(=O)Nc2cc3ncc(Sc4ccccc4)nc3nc2C)cc1`, with less than 50%.

(Values after ChEMBL document CHEMBL4000195, “Design and synthesis of novel 7-aminosubstituted pyrido[2,3-b]pyrazines exhibiting anti-breast cancer activity” (Eur J Med Chem, 2017).)
